The structures appear in SMILES notation.

The test deals with T1, full-length beta-Catenin (Uniprot ID P35222) (Homo sapiens, UniProt P35222).
T1 construct: 10 nM full-length beta-Catenin (Uniprot ID P35222)
T1 sequence (P35222 1-781): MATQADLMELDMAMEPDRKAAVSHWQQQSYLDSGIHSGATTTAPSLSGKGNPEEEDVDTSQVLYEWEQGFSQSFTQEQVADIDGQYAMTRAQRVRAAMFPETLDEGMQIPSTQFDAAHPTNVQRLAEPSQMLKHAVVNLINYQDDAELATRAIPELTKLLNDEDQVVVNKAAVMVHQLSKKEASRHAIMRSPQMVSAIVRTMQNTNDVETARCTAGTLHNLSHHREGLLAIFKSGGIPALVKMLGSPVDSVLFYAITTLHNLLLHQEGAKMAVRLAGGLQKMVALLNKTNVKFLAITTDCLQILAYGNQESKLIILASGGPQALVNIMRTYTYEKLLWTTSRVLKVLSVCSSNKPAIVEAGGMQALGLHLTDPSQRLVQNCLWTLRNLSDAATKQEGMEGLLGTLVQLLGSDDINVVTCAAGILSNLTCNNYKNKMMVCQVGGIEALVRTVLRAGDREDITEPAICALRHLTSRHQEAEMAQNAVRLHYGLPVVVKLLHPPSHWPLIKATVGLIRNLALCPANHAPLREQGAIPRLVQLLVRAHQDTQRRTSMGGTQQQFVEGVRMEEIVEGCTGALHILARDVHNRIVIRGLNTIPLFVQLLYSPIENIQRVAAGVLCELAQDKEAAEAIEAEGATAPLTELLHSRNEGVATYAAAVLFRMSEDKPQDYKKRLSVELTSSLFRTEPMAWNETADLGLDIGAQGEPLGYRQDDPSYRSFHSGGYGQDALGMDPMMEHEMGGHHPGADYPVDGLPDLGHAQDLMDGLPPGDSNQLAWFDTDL
Nature of the test: Fluorescence polarization IC50 (beta-catenin / 5FAM-TCF4 10-53 competition). The conditions noted are these: fluorescence polarization; read-out: beta-Catenin FP IC50. In kind it is binding. A general note: In fluorescence polarisation assays a small probe gives low polarisation when free and higher when bound to something large.

A word on the IC50: it is the concentration needed to halve the response being measured. As for `CC(=O)N1CCC[C@]12CC=CCCCC1(CCCC=CCCCOC(=O)N3CC[C@@](C(=O)N[C@@H](Cc4ccsc4)C(=O)N[C@@H](Cc4csc5ccccc45)C(=O)N[C@@H](CCC(N)=O)C(N)=O)(C3)NC(=O)[C@H](Cc3c[nH]cn3)NC(=O)[C@H](Cc3ccccc3)NC(=O)[C@H](C)NC(=O)[C@H](C)NC(=O)[C@H]([C@@H](C)O)NC(=O)[C@H](CC(N)=O)NC1=O)NC(=O)[C@H](CC(C)(C)C)NC(=O)[C@H](CC(=O)O)NC2=O` (stereo partly drawn) [I-2146, Ac-PL3-Asp-Npg-B5-Asn-Thr-Ala-Ala-Phe-His-PyrS2-3Thi-BztA-Gln-NH2], the IC50 is 248 nM.

For the compound `CC(=O)N1CCC[C@]12CC=CCCCC1(CCCC=CCCCOC(=O)N3CC[C@@](C(=O)N[C@@H](Cc4ccsc4)C(=O)N[C@@H](Cc4csc5ccccc45)C(=O)N[C@@H](CCC(N)=O)C(N)=O)(C3)NC(=O)[C@H](Cc3c[nH]cn3)NC(=O)[C@H](Cc3ccccc3)NC(=O)[C@H](C)NC(=O)[C@H](C)NC(=O)[C@H]([C@@H](C)O)NC(=O)[C@H](CC(N)=O)NC1=O)NC(=O)[C@H](CC(C)(C)C)NC(=O)[C@H](CC(=O)O)NC2=O` (stereo partly drawn) [I-2147, Ac-PL3-Asp-Npg-B5-Asn-Thr-Ala-Ala-Phe-His-PyrS2-3Thi-BztA-Gln-NH2], the IC50 worked out at 390 nM.

As for `CC(=O)N1CCC[C@]12CC=CCCCC1(CCCC=CCCCOC(=O)N3CC[C@@](C(=O)N[C@@H](Cc4ccsc4)C(=O)N[C@@H](Cc4csc5ccccc45)C(=O)N[C@@H](CCC(N)=O)C(N)=O)(C3)NC(=O)[C@H](CC(N)=O)NC(=O)[C@H](Cc3ccccc3)NC(=O)[C@H](C)NC(=O)[C@H](C)NC(=O)[C@H]([C@@H](C)O)NC(=O)[C@H]([C@@H](C)O)NC1=O)NC(=O)[C@H](CC(C)(C)C)NC(=O)[C@H](CC(=O)O)NC2=O` (stereo partly drawn) [I-2149, Ac-PL3-Asp-Npg-B5-Thr-Thr-Ala-Ala-Phe-Asn-PyrS2-3Thi-BztA-Gln-NH2], the IC50 turned out to be 7180 nM.

In the case of `CC(=O)N1CCC[C@]12CC=CCCCC1(CCCC=CCCCOC(=O)N3CC[C@@](C(=O)N[C@@H](Cc4cccc(Br)c4)C(=O)N[C@@H](Cc4ccsc4)C(=O)N[C@@H](CCC(N)=O)C(N)=O)(C3)NC(=O)[C@H](CC(C)C)NC(=O)[C@H](Cc3ccccc3)NC(=O)[C@H](C)NC(=O)[C@H](C)NC(=O)[C@H](Cc3cccc(C(=O)O)c3)NC(=O)[C@H](CC(=O)O)NC1=O)NC(=O)[C@H](CC(C)(C)C)NC(=O)[C@H](CC(=O)O)NC2=O` (stereo partly drawn) [I-2152, Ac-PL3-Asp-Npg-B5-Asp-3COOHF-Ala-Ala-Phe-Leu-PyrS2-3BrF-3Thi-Gln-NH2], the IC50 came out at 3080 nM.

As for `CC(=O)N1CCC[C@]12CC=CCCCC1(CCCC=CCCCOC(=O)N3CC[C@@](C(=O)N[C@@H](Cc4cccc(Br)c4)C(=O)N[C@@H](Cc4ccccc4)C(=O)N[C@@H](CCC(N)=O)C(N)=O)(C3)NC(=O)[C@H](CC(C)C)NC(=O)[C@H](Cc3ccccc3)NC(=O)[C@H](C)NC(=O)[C@H](C)NC(=O)[C@H](Cc3cccc(C(=O)O)c3)NC(=O)[C@H](CC(=O)O)NC1=O)NC(=O)[C@H](CC(C)(C)C)NC(=O)[C@H](CC(=O)O)NC2=O` (stereo partly drawn) [I-2153, Ac-PL3-Asp-Npg-B5-Asp-3COOHF-Ala-Ala-Phe-Leu-PyrS2-3BrF-Phe-Gln-NH2], the IC50 is 1480 nM.

Consider `CC(=O)N1CCC[C@]12CC=CCCCC1(CCCC=CCCCOC(=O)N3CC[C@@](C(=O)N[C@@H](Cc4cccc(Br)c4)C(=O)N[C@@H](CC4CCC4)C(=O)N[C@@H](CCC(N)=O)C(N)=O)(C3)NC(=O)[C@H](CC(C)C)NC(=O)[C@H](Cc3ccccc3)NC(=O)[C@H](C)NC(=O)[C@H](C)NC(=O)[C@H](Cc3cccc(C(=O)O)c3)NC(=O)[C@H](CC(=O)O)NC1=O)NC(=O)[C@H](CC(C)(C)C)NC(=O)[C@H](CC(=O)O)NC2=O` (stereo partly drawn) [I-2154, Ac-PL3-Asp-Npg-B5-Asp-3COOHF-Ala-Ala-Phe-Leu-PyrS2-3BrF-Cba-Gln-NH2], for which the IC50 is 9550 nM.

As to `CC(=O)N1CCC[C@]12CC=CCC1(CC=CCCCCOC(=O)N3CC[C@@](C(=O)N[C@@H](Cc4ccsc4)C(=O)N[C@@H](Cc4csc5ccccc45)C(=O)N[C@@H](CCC(N)=O)C(N)=O)(C3)NC(=O)[C@H](CC(C)C)NC(=O)[C@H](Cc3ccccc3)NC(=O)[C@H](C)NC(=O)[C@H](C)NC(=O)[C@H](CC(=O)O)NC(=O)[C@H](CC(=O)O)NC1=O)NC(=O)[C@H](CC(C)(C)C)NC(=O)[C@H](CC(=O)O)NC2=O` (stereo partly drawn) [I-2157, Ac-PL3-Asp-Npg-B3-Asp-Asp-Ala-Ala-Phe-Leu-PyrS3-3Thi-BztA-Gln-NH2], the IC50 worked out at 141 nM.

`CC(=O)N1CCC[C@]12CCCCC1(CCCCCCOC(=O)N3CC[C@@](C(=O)N[C@@H](Cc4ccsc4)C(=O)N[C@@H](Cc4csc5ccccc45)C(=O)N[C@@H](CCC(N)=O)C(N)=O)(C3)NC(=O)[C@H](CC(C)C)NC(=O)[C@H](Cc3ccccc3)NC(=O)[C@H](C)NC(=O)[C@H](C)NC(=O)[C@H](CC(=O)O)NC(=O)[C@H](CC(=O)O)NC1=O)NC(=O)[C@H](CC(C)(C)C)NC(=O)[C@H](CC(=O)O)NC2=O` (stereo partly drawn) [I-2160, Ac-PL3-Asp-Npg-B3-Asp-Asp-Ala-Ala-Phe-Leu-PyrS2-3Thi-BztA-Gln-NH2]: the IC50 is 1240 nM.

In the case of `CC(=O)N1CCC[C@]12CC=CCCCC1(CCCC=CCCCOC(=O)N3CC[C@@](C(=O)N[C@@H](Cc4cccc(C(N)=O)c4)C(=O)N[C@@H](Cc4csc5ccccc45)C(=O)N[C@@H](CCC(N)=O)C(N)=O)(C3)NC(=O)[C@H](CC(C)C)NC(=O)[C@H](Cc3ccccc3)NC(=O)[C@H](C)NC(=O)[C@H](CCCCNC(C)C)NC(=O)[C@H](CCC(N)=O)NC(=O)[C@H](CC(=O)O)NC1=O)NC(=O)[C@H](CC1CCCCC1)NC(=O)[C@H](CC(N)=O)NC2=O` (stereo partly drawn) [I-2163, Ac-PL3-Asn-Cha-B5-Asp-Gln-iPrLys-Ala-Phe-Leu-PyrS2-3cbmf-BztA-Gln-NH2], the IC50 is 3720 nM.

As to `CC(=O)N1CCC[C@]12CC=CCCCC1(CCCC=CCCCOC(=O)N3CC[C@@](C(=O)N[C@@H](Cc4cccc(C(N)=O)c4)C(=O)N[C@@H](Cc4csc5ccccc45)C(=O)N[C@@H](CCC(N)=O)C(N)=O)(C3)NC(=O)[C@H](CC(N)=O)NC(=O)[C@H](Cc3ccccc3)NC(=O)[C@H](C)NC(=O)[C@H](CCCCNC(C)C)NC(=O)[C@H](CCC(N)=O)NC(=O)[C@H](CC(=O)O)NC1=O)NC(=O)[C@H](CC1CCCCC1)NC(=O)[C@H](CC(N)=O)NC2=O` (stereo partly drawn) [I-2164, Ac-PL3-Asn-Cha-B5-Asp-Gln-iPrLys-Ala-Phe-Asn-PyrS2-3cbmf-BztA-Gln-NH2], the IC50 worked out at 1180 nM.

Take `CC(=O)N1CCC[C@]12CC=CCCCC1(CCCC=CCCCOC(=O)N3CC[C@@](C(=O)N[C@@H](Cc4ccccc4)C(=O)N[C@@H](Cc4csc5ccccc45)C(=O)N[C@@H](CCO)C(N)=O)(C3)NC(=O)[C@H](CC(C)C)NC(=O)[C@H](Cc3ccccc3)NC(=O)[C@H](C)NC(=O)[C@H](CCCCNC(C)C)NC(=O)[C@H](CCC(N)=O)NC(=O)[C@H](CC(=O)O)NC1=O)NC(=O)[C@H](CC1CCCCC1)NC(=O)[C@H](CC(N)=O)NC2=O` (stereo partly drawn) [I-2165, Ac-PL3-Asn-Cha-B5-Asp-Gln-iPrLys-Ala-Phe-Leu-PyrS2-Phe-BztA-Hse-NH2]: the IC50 stood at 441 nM.

Consider `CC(=O)N1CCC[C@]12CC=CCCCC1(CCCC=CCCCOC(=O)N3CC[C@@](C(=O)N[C@@H](Cc4cccc(C(N)=O)c4)C(=O)N[C@@H](Cc4csc5ccccc45)C(=O)N[C@@H](CCO)C(N)=O)(C3)NC(=O)[C@H](CC(C)C)NC(=O)[C@H](Cc3ccccc3)NC(=O)[C@H](C)NC(=O)[C@H](CCCCNC(C)C)NC(=O)[C@H](CCC(N)=O)NC(=O)[C@H](CC(=O)O)NC1=O)NC(=O)[C@H](CC1CCCCC1)NC(=O)[C@H](CC(N)=O)NC2=O` (stereo partly drawn) [I-2166, Ac-PL3-Asn-Cha-B5-Asp-Gln-iPrLys-Ala-Phe-Leu-PyrS2-3cbmf-BztA-Hse-NH2], for which the IC50 is 1590 nM.

For `CC(=O)N1CCC[C@]12CC=CCCCC1(CCCC=CCCCOC(=O)N3CC[C@@](C(=O)N[C@@H](Cc4ccccc4)C(=O)N[C@@H](Cc4csc5ccccc45)C(=O)N[C@@H](CCO)C(N)=O)(C3)NC(=O)[C@H](CC(N)=O)NC(=O)[C@H](Cc3ccccc3C(N)=O)NC(=O)[C@H](C)NC(=O)[C@H](CCCCNC(C)C)NC(=O)[C@H](CCC(N)=O)NC(=O)[C@H](CC(=O)O)NC1=O)NC(=O)[C@H](CC1CCCCC1)NC(=O)[C@H](CC(N)=O)NC2=O` (stereo partly drawn) [I-2173, Ac-PL3-Asn-Cha-B5-Asp-Gln-iPrLys-Ala-2cbmf-Asn-PyrS2-Phe-BztA-Hse-NH2], the IC50 was 3070 nM.

Regarding `CC(=O)N1CCC[C@]12CC=CCCCC1(CCCC=CCCCOC(=O)N3CC[C@@](C(=O)N[C@@H](Cc4ccsc4)C(=O)N[C@@H](Cc4c[nH]c5ccccc45)C(=O)N[C@@H](CCC(N)=O)C(N)=O)(C3)NC(=O)[C@H](CC(N)=O)NC(=O)[C@H](Cc3ccccc3)NC(=O)[C@H](C)NC(=O)[C@H](C)NC(=O)[C@H](CC(=O)O)NC(=O)[C@H](CC(=O)O)NC1=O)NC(=O)[C@H](CC(C)(C)C)NC(=O)[C@H](CC(=O)O)NC2=O` (stereo partly drawn) [I-2175, Ac-PL3-Asp-Npg-B5-Asp-Asp-Ala-Ala-Phe-Asn-PyrS2-3Thi-Trp-Gln-NH2], the IC50 was determined as 19 nM.
